IC50 and extraction yield data for 13 molecules are collected here from article PMC9046974, “Construction of a Microfluidic Platform With Core-Shell CdSSe@ZnS Quantum Dot-Encoded Superparamagnetic Iron Oxide Microspheres for Screening and Locating Matrix Metalloproteinase-2 Inhibitors From Fruits of Rosa roxburghii” (Frontiers in Nutrition, 2022).

By IC50 is commonly meant the midpoint of a concentration-inhibition curve. Low values mean greater potency in that assay, high ones weaker potency in that assay.

In one test the target is T1, matrix metalloproteinase-2 (Homo sapiens, UniProt P08253).
T1 construct: purchased not specified for the assay (Sigma Co. recombinant enzyme or a component of the Shanghai Easy Biotech Co. ELISA kit)
T1 sequence (P08253 110-660): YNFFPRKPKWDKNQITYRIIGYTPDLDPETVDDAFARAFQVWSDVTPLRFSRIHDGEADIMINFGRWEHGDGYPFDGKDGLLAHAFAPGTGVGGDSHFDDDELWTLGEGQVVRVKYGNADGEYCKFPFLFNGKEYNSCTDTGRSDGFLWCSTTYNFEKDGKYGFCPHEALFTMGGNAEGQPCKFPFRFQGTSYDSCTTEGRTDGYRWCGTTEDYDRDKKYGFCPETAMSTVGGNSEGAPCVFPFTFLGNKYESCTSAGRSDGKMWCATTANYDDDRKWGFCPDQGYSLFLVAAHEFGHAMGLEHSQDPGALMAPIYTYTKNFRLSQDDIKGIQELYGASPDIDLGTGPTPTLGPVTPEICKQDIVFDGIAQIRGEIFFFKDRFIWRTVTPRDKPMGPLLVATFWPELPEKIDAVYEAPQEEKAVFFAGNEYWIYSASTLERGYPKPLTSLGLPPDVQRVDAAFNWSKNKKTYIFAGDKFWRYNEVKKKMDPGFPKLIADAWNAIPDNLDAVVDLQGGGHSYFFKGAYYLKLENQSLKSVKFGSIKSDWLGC
Briefly: Matrix metalloproteinase-2 inhibitory assay. Format: biochemical. Particulars: MMP-2 inhibition, 30 min at 37°C, absorbance 450 nm. The procedure: The inhibitory effects of binding ligands were evaluated as below. […] Test components were dissolved in the buffer to yield a gradient of concentrations between 1 and 200 μM. A total of 50 μl of test components and 100 μl of the enzyme solution were added to a 96-well plate and incubated for 30 min at 37°C. Afterward, the solution in the 96-well plate was discarded. The plate was dried on water adsorbing paper. A total of 200 μl of wash solution was added to each well and incubated for 30 s. Again, the solution in the 96-well plate was abandoned. The plate was dried on water adsorbing paper. This step was carried out five times. A total of 50 μl aliquots of solution A and 50 μl aliquots of solution B were added to each well and kept in a dark place for 15 min. As a result, 50 μl aliquots of stopping solution were pipetted into each well. The plate was monitored at the absorbance of 450 nm by using an automatic microplate reader.
As to `C[C@@H]1CC[C@]2(C(=O)O[C@@H]3O[C@H](CO)[C@@H](O)[C@H](O)[C@H]3O)CC[C@]3(C)C(=CC[C@@H]4[C@@]5(C)C[C@@H](O)C(=O)C(C)(C)[C@@H]5CC[C@]43C)[C@@H]2[C@]1(C)O` [Potentillanoside A], the IC50 amounted to 25.5 ± 3.01 µM. With `CC1(C)CC[C@]2(C(=O)O)CC[C@]3(C)C(=CC[C@@H]4[C@@]5(C)C[C@H](O)[C@H](O)[C@@](C)(C(=O)O)[C@@H]5CC[C@]43C)[C@@H]2C1` [Medicogenic acid, Medicagenic acid], the concentration for half-maximal inhibition (IC50) came out at 64.1 ± 13.6 µM. `CC1=C2[C@H](/C=C(\C)C(=O)O)CC[C@@H](C)[C@H]2CC1` [Valerenic acid]: the IC50 came out at 82.5 ± 8.87 µM.

Molecule `O=C(O[C@@H]1O[C@@H]2COC(=O)c3cc(O)c(O)c(O)c3-c3c(cc(O)c(O)c3O)C(=O)O[C@H]([C@H]1O)[C@@H]2O)c1cc(O)c(O)c(O)c1` [Corilagin] came in with an IC50 of 28.6 ± 2.83 µM. Still for that read-out and setting: to `C[C@@H]1CC[C@]2(C(=O)O[C@@H]3O[C@H](CO)[C@@H](O)[C@H](O)[C@H]3O)CC[C@]3(C)C(=CC[C@@H]4[C@@]5(C)C[C@@H](O)[C@H](O)C(C)(C)[C@@H]5CC[C@]43C)[C@@H]2[C@]1(C)O` [Rosamultin] belongs 20.7 ± 2.06 µM.

Consider Oreganol A, for which the IC50 is 30.8 ± 2.13 µM.

As to `C[C@@H]1CC[C@]2(C(=O)O[C@@H]3O[C@H](CO)[C@@H](O)[C@H](O)[C@H]3O)CC[C@]3(C)C(=CC[C@@H]4[C@@]5(C)C[C@@H](O)[C@@H](O)C(C)(C)[C@@H]5CC[C@]43C)[C@@H]2[C@]1(C)O` [Kajiichigoside F1], the IC50 was found to be 22 ± 2.15 µM. In turn, `O=c1oc2c(O)c(O)cc3c(=O)oc4c(O)c(O)cc1c4c23` [Ellagic acid, reference compound] gave a 50% inhibitory concentration (IC50) of 37.8 ± 1.96 µM.

Consider `C[C@@H]1CC[C@]2(C(=O)O[C@@H]3O[C@H](CO)[C@@H](O)[C@H](O)[C@H]3O)CC[C@]3(C)C(=CC[C@@H]4[C@@]5(C)C[C@@H](O)[C@H](O)[C@@](C)(CO)[C@@H]5CC[C@]43C)[C@@H]2[C@]1(C)O` [Niga-ichigoside F1], for which the IC50 was determined as 20.1 ± 1.55 µM.

As to `COC(=O)[C@@]1(C)CC[C@]2(C(=O)O[C@@H]3O[C@H](CO)[C@@H](O)[C@H](O)[C@H]3O)CC[C@]3(C)C(=CC[C@@H]4[C@@]5(C)CC[C@H](O)[C@@](C)(CO)[C@@H]5CC[C@]43C)[C@@H]2C1` [Zebirioside O], the IC50 worked out at 23.2 ± 4.49 µM. Same read-out and setting: to Peduncloside belongs 23.2 ± 2.53 µM. The same measure, in the same setting: with `C=C1[C@H]2C3=CC[C@@H]4[C@@]5(C)C[C@@H](O)[C@H](O)[C@@](C)(CO)[C@@H]5CC[C@@]4(C)[C@]3(C)CC[C@@]2(C(=O)O[C@@H]2O[C@H](CO)[C@@H](O)[C@H](O)[C@H]2O)CC[C@H]1C` [Quadranoside VIII] the figure was 25.9 ± 5.66 µM.

The target of the next test is T2, MS@PEI@QDs@PEI@MMP-2 (immobilized matrix metalloproteinase-2) (Homo sapiens, UniProt P08253).
T2 construct: purchased Sigma Co; host or cells: HEK 293 cells
T2 sequence (P08253 110-660): T1 sequence (P08253 110-660)
Briefly: Microfluidic chip-based ligand fishing. Format: binding. The following applies: dissociated solution after microfluidic chip-based ligand fishing.
Protocol: All ligand fishing experiments were performed on the microfluidic chip system. The microfluidic chip system consisted of six modules, namely, a microscope stand, a light-emitting diode surface light source, a charge-coupled device (CCD) camera, a temperature controller, an automated x-y-z translation stage (Wuhan Mesovision Biotechnology Co.) for controlling the movement of the microfluidic chip, and four syringe pumps (Baoding Lange Constant Current Pump Co.). Before use, the microfluidic chip was first treated with 1% tween 80 in n-hexadecane (v/v) through port a to make the whole chip surface hydrophobic. […] Under the monitoring of the top-view CCD camera, MS@PEI@QDs@PEI@MMP-2 were infused into the upper left port b, whereas extract of R. roxburghii was infused into upper right port c at an appropriate flow rate to allow the solution to meet the MS@PEI@QDs@PEI @MMP-2 at the junction. The mixture was incubated in the channel for a period. Then, 500 μl aliquots of wash solvent (PBS buffer) were infused into the port d. At the turning point, a small ring magnet trapped the MS@PEI@QDs@PEI@MMP-2. […] The linearity was analyzed by plotting the peak area of the ellagic acid against a series of concentrations (0.009–1.00 mg·ml^−1). The lower limit of quantification was determined as the analytical concentration at an S/N ratio of 10. […] The UV spectra were monitored at 254 nm. […]
For `CNC(=O)[C@H](Cc1ccccc1)NC(=O)[C@H](CC(C)C)[C@H](CSc1cccs1)C(=O)NO` [Batimastat], the extraction yield is listed as 76.6%.
